In patent publication US9556139B2, “6-substituted phenoxychroman carboxylic acid derivatives” (Array BioPharma Inc., priority 2008, dated 2017):

Each molecule was assayed against human DP2 (Homo sapiens (Human), UniProt Q9Y5Y4) (assay: DP-2 Binding Inhibition Assay (3H-PGD2 binding to membranes of K562 cells expressing DP2)). Settings: read-out: EC50 (Nm) 1% HSA; inhibition of 3H-PGD2 binding, 1% HSA.
Chain of human DP2 (Q9Y5Y4 whole entry): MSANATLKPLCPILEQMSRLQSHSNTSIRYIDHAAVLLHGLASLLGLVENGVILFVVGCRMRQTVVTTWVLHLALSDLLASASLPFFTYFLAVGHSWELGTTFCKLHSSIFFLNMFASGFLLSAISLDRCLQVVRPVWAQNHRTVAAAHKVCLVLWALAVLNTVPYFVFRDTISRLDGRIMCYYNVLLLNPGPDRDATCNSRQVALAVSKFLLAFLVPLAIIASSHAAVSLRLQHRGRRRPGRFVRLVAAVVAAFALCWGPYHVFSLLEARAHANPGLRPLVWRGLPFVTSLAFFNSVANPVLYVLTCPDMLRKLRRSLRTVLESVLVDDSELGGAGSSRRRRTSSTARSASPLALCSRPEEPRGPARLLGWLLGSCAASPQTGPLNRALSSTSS
Summary of the method: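 Radioligand filtration binding: ³H-PGD2 displacement from DP2-expressing K562 cell membranes, 60 min, room temperature, pH 7.4, under 0.1% BSA, 1% HSA or 4% HSA.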
In the case of O=C(NCCc1ccc(Cl)cc1)c1ccc(Oc2cc(Cl)c3c(c2)OCCC3C(=O)O)cc1 (stereo not drawn) [Example 218, 5-chloro-7-(4-(4-chlorophenethylcarbamoyl)phenoxy)chroman-4-carboxylic acid], the EC50 is reported as 144 nM. C[C@H](CNC(=O)c1ccc(Oc2cc3c(cc2C#N)C(C(=O)O)CCO3)cc1)c1ccccc1 (stereo partly drawn) [Example 131, 6-Cyano-7-(4-((S)-2-phenylpropylcarbamoyl)phenoxy)chroman-4-carboxylic acid] was tested, and the EC50 was 59.3 nM. C[C@@H](CNC(=O)c1ccc(Oc2cc3c(cc2C#N)C(C(=O)O)CCO3)cc1)c1ccccc1 (stereo partly drawn) [Example 130, 6-Cyano-7-(4-((R)-2-phenylpropylcarbamoyl)phenoxy)chroman-4-carboxylic acid] was tested, and the EC50 was 25.7 nM.

Same assay, conditions: read-out: EC50 (nM) 4% HSA; inhibition of 3H-PGD2 binding, 4% HSA
Molecule Cc1ccc(-c2cccc(NC(=O)c3ccc(Oc4cc5c(cc4C#N)C(C(=O)O)CCO5)cc3)c2)cc1C (stereo not drawn) [Example 66, 6-Cyano-7-(4-(3′,4′-dimethylbiphenyl-3-ylcarbamoyl)phenoxy)chroman-4-carboxylic acid] has an EC50 of 68.2 nM. CSc1ccc(C2CCC(NC(=O)c3ccc(Oc4cc5c(cc4Cl)C(C(=O)O)CCO5)cc3)C2)cc1 (stereo not drawn) [Example 175, Sodium 6-chloro-7-(4-(3-(4-(methylthio)phenyl)cyclopentylcarbamoyl)phenoxy)chroman-4-carboxylate] was tested, and the EC50 was 572 nM. O=C(NC1CCC(c2ccc(Cl)cc2)CC1)c1ccc(Oc2cc3c(cc2Cl)C(C(=O)O)CCO3)cc1 (stereo not drawn) [Example 176, Sodium 6-chloro-7-(4-(4-(4-chlorophenyl)cyclohexylcarbamoyl)phenoxy)chroman-4-carboxylate] was tested, and the EC50 was 339 nM. With O=C(NCCc1ccc(Cl)cc1Br)c1ccc(Oc2cc3c(cc2Cl)C(C(=O)O)CCO3)cc1 (stereo not drawn) [Example 32, Sodium 7-(4-(2-bromo-4-chlorophenethylcarbamoyl)phenoxy)-6-chlorochroman-4-carboxylate] the EC50 was 88 nM. With COc1cc(OC)c(CCNC(=O)c2ccc(Oc3cc4c(cc3Cl)C(C(=O)O)CCO4)cc2)c(OC)c1 (stereo not drawn) [Example 222, 6-chloro-7-(4-(2,4,6-trimethoxyphenethylcarbamoyl)phenoxy)chroman-4-carboxylic acid] the EC50 was 118 nM. Work on O=C(NCCc1ccccc1Br)c1ccc(Oc2cc3c(cc2Cl)C(C(=O)O)CCO3)cc1 (stereo not drawn) [Example 91, Sodium 7-(4-(2-bromophenethylcarbamoyl)phenoxy)-6-chlorochroman-4-carboxylate] yielded an EC50 of 192 nM. With O=C(NC1CCN(c2cccc(Cl)c2)CC1)c1ccc(Oc2cc3c(cc2Cl)C(C(=O)O)CCO3)cc1 (stereo not drawn) [Example 120, Sodium 6-chloro-7-(4-(1-(3-chlorophenyl)piperidin-4-ylcarbamoyl)phenoxy)chroman-4-carboxylate] the EC50 was 371 nM. O=C(NCCc1ccccc1-c1cccc(Cl)c1)c1ccc(Oc2cc3c(cc2Cl)C(C(=O)O)CCO3)cc1 (stereo not drawn) [Example 95, Sodium 6-chloro-7-(4-(2-(3′-chlorobiphenyl-2-yl)ethylcarbamoyl)phenoxy)chroman-4-carboxylate] gave an EC50 of 91.8 nM. For O=C(NCCc1ccc(Br)cc1)c1ccc(Oc2cc3c(cc2Cl)C(C(=O)O)CCO3)cc1 (stereo not drawn) [Example 23, Sodium 7-(4-(4-bromophenethylcarbamoyl)phenoxy)-6-chlorochroman-4-carboxylate], the EC50 was 327 nM. In the case of Cc1cc(C(=O)NCCc2ccc(Cl)cc2Cl)ccc1Oc1cc2c(cc1Cl)C(C(=O)O)CCO2 (stereo not drawn) [Example 182, Sodium 6-chloro-7-(4-(2,4-dichlorophenethylcarbamoyl)-2-methylphenoxy)chroman-4-carboxylate], the EC50 is reported as 151 nM. For O=C(NC1CCC(c2ccc(Cl)cc2)C1)c1ccc(Oc2cc3c(cc2Cl)C(C(=O)O)CCO3)cc1 (stereo not drawn) [Example 168, Sodium 6-chloro-7-(4-(3-(4-chlorophenyl)cyclopentylcarbamoyl)phenoxy)chroman-4-carboxylate], the EC50 was 302 nM. In the case of O=C(NCCc1ccc2ccccc2c1)c1ccc(Oc2cc3c(cc2Cl)C(C(=O)O)CCO3)cc1 (stereo not drawn) [Example 87, Sodium 6-chloro-7-(4-(2-(naphthalen-2-yl)ethylcarbamoyl)phenoxy)chroman-4-carboxylate], the EC50 is reported as 234 nM. Cc1cc(C(=O)NCCc2ccc(Cl)cc2)ccc1Oc1cc2c(cc1Cl)C(C(=O)O)CCO2 (stereo not drawn) [Example 181, Sodium 6-chloro-7-(4-(4-chlorophenethylcarbamoyl)-2-methylphenoxy)chroman-4-carboxylate] gave an EC50 of 331 nM. In the case of CCOc1ccc(CCNC(=O)c2ccc(Oc3cc4c(cc3Cl)C(C(=O)O)CCO4)cc2)c(OC)c1 (stereo not drawn) [Example 227, 6-chloro-7-(4-(4-ethoxy-2-methoxyphenethylcarbamoyl)phenoxy)chroman-4-carboxylic acid], the EC50 is reported as 74.5 nM. O=C(NCCCCc1cccc(Cl)c1)c1ccc(Oc2cc3c(cc2Cl)C(C(=O)O)CCO3)cc1 (stereo not drawn) [Example 14, Sodium 6-chloro-7-(4-(4-(3-chlorophenyl)butylcarbamoyl)phenoxy)chroman-4-carboxylate] was tested, and the EC50 was 824 nM. O=C(NC1CCC(c2ccccc2)C1)c1ccc(Oc2cc3c(cc2Cl)C(C(=O)O)CCO3)cc1 (stereo not drawn) [Example 165, 6-chloro-7-(4-(3-phenylcyclopentylcarbamoyl)phenoxy)chroman-4-carboxylic acid] gave an EC50 of 401 nM. Work on O=C(NCC1Cc2ccccc2C1)c1ccc(Oc2cc3c(cc2Cl)C(C(=O)O)CCO3)cc1 (stereo not drawn) [Example 111, Sodium 6-chloro-7-(4-((2,3-dihydro-1H-inden-2-yl)methylcarbamoyl)phenoxy)chroman-4-carboxylate] yielded an EC50 of 174 nM. Work on O=C(NC1CCN(c2ccc(Cl)cc2Cl)CC1)c1ccc(Oc2cc3c(cc2Cl)C(C(=O)O)CCO3)cc1 (stereo not drawn) [Example 124, Sodium 6-chloro-7-(4-(1-(2,4-dichlorophenyl)piperidin-4-ylcarbamoyl)phenoxy)chroman-4-carboxylate] yielded an EC50 of 841 nM. O=C(NCCc1ccc(C(F)(F)F)cc1C(F)(F)F)c1ccc(Oc2cc3c(cc2Cl)C(C(=O)O)CCO3)cc1 (stereo not drawn) [Example 221, 7-(4-(2,4-bis(trifluoromethyl)phenethylcarbamoyl)phenoxy)-6-chlorochroman-4-carboxylic acid] showed an EC50 of 45 nM. Molecule COc1ccc(C2CCC(NC(=O)c3ccc(Oc4cc5c(cc4Cl)C(C(=O)O)CCO5)cc3)C2)cc1 (stereo not drawn) [Example 174, Sodium 6-chloro-7-(4-(3-(4-methoxyphenyl)cyclopentylcarbamoyl)phenoxy)chroman-4-carboxylate] has an EC50 of 723 nM. Molecule O=C(NCCc1cccc(F)c1)c1ccc(Oc2cc3c(cc2Cl)C(C(=O)O)CCO3)cc1 (stereo not drawn) [Example 145, Sodium 6-chloro-7-(4-(3-fluorophenethylcarbamoyl)phenoxy)chroman-4-carboxylate] has an EC50 of 655 nM. In the case of O=C(NCCc1ccc(SC(F)(F)F)cc1)c1ccc(Oc2cc3c(cc2Cl)C(C(=O)O)CCO3)cc1 (stereo not drawn) [Example 147, Sodium 6-chloro-7-(4-(4-(trifluoromethylthio)phenethylcarbamoyl)phenoxy)chroman-4-carboxylate], the EC50 is reported as 240 nM. For CC(C)Oc1cccc(NC(=O)c2ccc(Oc3cc4c(cc3C#N)C(C(=O)O)CCO4)cc2)c1 (stereo not drawn) [Example 135, 6-Cyano-7-(4-(3-isopropoxyphenylcarbamoyl)phenoxy)chroman-4-carboxylic acid], the EC50 was 205 nM. For O=C(NCCc1ccccc1OC(F)(F)F)c1ccc(Oc2cc3c(cc2Cl)C(C(=O)O)CCO3)cc1 (stereo not drawn) [Example 64, Sodium 6-chloro-7-(4-(2-(trifluoromethoxy)phenethylcarbamoyl)phenoxy)chroman-4-carboxylate], the EC50 was 153 nM.
